Data reported in patent publication US20050277624A1, “Use of corticosteroids alone or in conjunction with nutritional therapy to reduce stress in animals” (priority 2004, published 2005).

Assays:
[1] = Weight loss of calves during 8 h transport (Example 2); type: in vivo, crossbred calves (cattle); details: calves ~800 lb, dexamethasone i.m. 0.61 mg per 50 lb, NT 1 kg/animal 24 h prior
Source text: The study in Example 1 was repeated with the addition of a nutritional supplement treatment group. The calves were raised at the Agriculture and Agri-Food Canada Lacombe Research Centre (Lacombe, Alberta, Canada) in accordance with standard operating procedures representative of the cattle industry. The breed, sex and weight of the calves were similar to those used in Example 1. Crossbred calves weighing approximately 800 lb (363 kg) on average were used.
Twenty-four hours prior to transport, the calves were assigned to the nutritional supplement groups and were offered 1 kg/animal of nutritional supplement or a “receiver calf” preparation (Supplement 1(d) as described in U.S. Pat. Nos. 5,505,968 and 5,728,675 to Schaefer et al. with differences being the selection of flavoring, form of an extruded pellet, and carrier being alfalfa) along with their regular feed ration (cereal grain silage). All calves in all treatments were kept on normal feed and water rations prior to transport.
Weights of all animals were recorded pre- and post-transport and metabolic activity was assessed by infrared thermographic analyses of the eye region. […] The animals were then loaded onto a commercial transport carrier and transported for 8 h prior to being offloaded, re-weighed, re-scanned with infrared and re-sampled for cortisol. […]

[2] = tested on: calves; experiment: Behavioural scans (lying and eating frequency) for three days following transport (Example 3); type: in vivo; details: three day average following transport
Source text: Corticosteroid treatment in conjunction with a nutritional supplement appears to enhance recovery from transport stress. The behavioral responses of animals were monitored following transport. Calves were allocated among five treatment groups as follows:
For all of the above groups, ten behavioural scans lasting one minute each were completed each day (pm) for three days following transport, thereby accumulating a total of 2,280 animal observations. Frequency measures of animals lying and eating were collected. It is well known to those skilled in the art that when animals are fatigued or morbid, they tend to lie down (Kilbour et al., 1984; Agri-Food Research Council Canadian Food Inspection Agency, 2001).

[3] = Weight loss of calves during 10 h transport (Example 1); type: in vivo, crossbred calves (cattle); details: calves ~600 lb, dexamethasone i.m. 2 mg per 50 lb body weight
Source text: Forty head of crossbred calves, both steers and heifers, and weighing approximately 600 lb (272 kg) on average were used. The calves were raised at the Agriculture and Agri-Food Canada Lacombe Research Centre (Lacombe, Alberta, Canada) in accordance with standard operating procedures representative of the cattle industry. The calves were randomly divided into two treatment groups designated as control (n=20) and dexamethasone-treated (n=20) and kept on standard feed (cereal grain silage) and water rations prior to transport.
Weights of all animals were recorded pre- and post-transport, metabolic activity was assessed by infrared thermographic analyses (IRT) of the eye region, and a salivary swab collection made for cortisol measurement.
The animals were subsequently loaded onto a commercial transport and transported for 10 h prior to being off loaded at the Agriculture and Agri-Food Canada Kamloops Research Centre (Kamloops, British Columbia, Canada). On arrival, the calves were again weighed, infrared images captured and a salivary swab collected. The animals were held overnight in pens with ad libitum access to water and cereal grain silage, and were again monitored for weight, thermal changes and salivary cortisol the following morning.

Structure (SMILES): C[C@@H]1C[C@H]2[C@@H]3CCC4=CC(=O)C=C[C@]4(C)[C@@]3(F)[C@@H](O)C[C@]2(C)[C@@]1(O)C(=O)CO [dexamethasone]
- weight loss during transport ([1]; control lost 21.5 kg): 17.6 kg
- weight loss during transport ([1]; control lost 47.36 lb, P<0.05): 38.87 lb
- Eating Frequency ([2]; control away 20%, control home 78%): 24%
- Lying Frequency ([2]; control away 97%, control home 23%): 0%
- weight loss during transport ([3]; control lost 5%): 3.2 % body weight
- weight loss during transport ([3]; control lost 13.8 kg): 8.7 kg
- weight loss during transport ([3]; control lost 30.5 lb, P<0.05): 19.2 lb
